From US8748426B2, “Inhibitors of diacylglycerol acyl transferase” (Piramal Enterprises Limited, priority 2009, dated 2014)

Each compound was assayed against T1, hDGAT1 (Homo sapiens, UniProt O75907) (assay: In-vitro DGAT1 assay (14C oleoyl CoA, hDGAT1 microsomes from Sf9 cells)). Details: at 1 μM.
T1 sequence (O75907 1-488): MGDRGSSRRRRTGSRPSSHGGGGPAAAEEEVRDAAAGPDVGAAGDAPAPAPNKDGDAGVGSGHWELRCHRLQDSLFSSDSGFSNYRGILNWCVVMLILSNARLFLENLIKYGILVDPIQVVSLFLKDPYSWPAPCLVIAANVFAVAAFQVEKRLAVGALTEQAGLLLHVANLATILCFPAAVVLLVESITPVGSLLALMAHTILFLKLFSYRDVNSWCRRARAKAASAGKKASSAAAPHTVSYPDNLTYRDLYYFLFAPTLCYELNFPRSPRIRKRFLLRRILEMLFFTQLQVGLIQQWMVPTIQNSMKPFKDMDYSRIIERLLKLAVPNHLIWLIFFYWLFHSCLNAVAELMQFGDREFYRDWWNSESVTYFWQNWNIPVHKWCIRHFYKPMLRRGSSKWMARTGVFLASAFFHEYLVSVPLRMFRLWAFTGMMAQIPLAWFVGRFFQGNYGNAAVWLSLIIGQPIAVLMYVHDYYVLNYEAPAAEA
Procedure: Sf9 cells were seeded in spinner flasks on day 0 at a cell density of 1×10^6 and infected on day 1 with hDGAT1 baculovirus at a multiplicity of infection (MOI) of 5 and a cell density of 2×10^6. On day 3 (or 66-72 h), cells were harvested and centrifuged at 2500×g for 10 min. Pellet was resuspended in lysis buffer (100 mM sucrose, 50 mM KCl, 40 mM KH2PO4, 30 mM EDTA, pH 7.2) and passed through 21-gauge needle approximately 10 times. […] The supernatant was subjected to centrifugation at 35,000 rpm in a Beckman Ti-45 rotor at 4° C. for 1 h. The resultant pellet containing the microsomes wasere resuspended overnight in 1 mL of lysis buffer and total protein concentration was estimated using Bradford Reagent. Microsomes were aliquoted and stored at −80° C.
Frozen aliquots of hDGAT1 containing microsomes were thawed (5-10 mg/mL total protein) on ice and diluted to a working stock of 1 mg/mL with DGAT Assay Buffer (DAB).
The assay was performed in duplicates in a reaction volume of 100 μL. […] Procedure:
The reaction was started by the addition of 2.5 μL of 1 mg/mL of microsomes (iv) to the mixture and incubated at 37° C. for 10 min. […] The mixture was vortexed and the triglycerides formed were extracted into the organic heptane phase.
With Cc1ccc(C(=O)Nc2ccc(-c3ccc4c(c3)C(=O)N(C35C[C@@H]6C[C@@H](CC(C(=O)O)(C6)C3)C5)C4)cc2)cc1 [Example 572, (1r,3s,5R,7S)-3-(6-(4-(4-Methylbenzamido)phenyl)-1-oxoisoindolin-2-yl)adamantane-1-carboxylic acid] the “% Inhibition of hDGAT1” value was “++ (>50% Inhibition)”. With “(S)-2-(5-(4-(3-(2-Fluorophenyl)thioureido)phenyl)-1-oxoisoindolin-2-yl)-3-methylbutanoic acid [Example 257]” the “% Inhibition of hDGAT1” value was “+ (10-50% Inhibition)”. For CC(C)[C@@H](C(=O)O)N1Cc2ccc(-c3ccc(NC(=O)c4ccc(-c5ccccc5)cc4)cc3F)cc2C1=O [Example 602, (S)-2-(6-(4-([1,1′-Biphenyl]-4-ylcarboxamido)-2-fluorophenyl)-1-oxoisoindolin-2-yl)-3-methylbutanoic acid], the “% Inhibition of hDGAT1” value was “++ (>50% Inhibition)”. In the case of CC(C)[C@@H](C(=O)O)N1Cc2cc(-c3ccc(NC(=S)Nc4ccc(C#N)cc4)cc3)ccc2C1=O [Example 269, (S)-2-(5-(4-(3-(4-Cyanophenyl)thioureido)phenyl)-1-oxoisoindolin-2-1)-3-methyl butanoic acid], the “% Inhibition of hDGAT1” value is reported as “+ (10-50% Inhibition)”.

Same assay, conditions: read-out: % Inhibition of hDGAT1
Work on CC(C)[C@@H](C(=O)O)N1Cc2ccc(-c3ccc(NC(=O)c4nnc(-c5ccccc5)[nH]4)cc3)cc2C1=O [Example 629, (S)-3-Methyl-2-(1-oxo-6-(4-(5-phenyl-4H-1,2,4-triazole-3-carboxamido)phenyl)isoindolin-2-yl)butanoic acid] yielded an inhibition at 1 µM of 10 to 50%. With CC(C)[C@@H](C(=O)O)N1Cc2ccc(-c3ccc(NC(=O)Nc4ccccc4F)cc3)cc2C1=O [Example 12, (S)-2-(6-(4-(3-(2-Fluorophenyl)ureido)phenyl)-1-oxoisoindolin-2-yl)-3-methyl butanoic acid] the inhibition at 1 µM was 10 to 50%. COc1ccc(NC(=O)Nc2ccc(-c3ccc4c(c3)CN([C@H](C(=O)O)C(C)C)C4=O)cc2)cc1 [Example 249, (S)-2-(5-(4-(3-(4-Methoxyphenyl)ureido)phenyl)-1-oxoisoindolin-2-yl)-3-methylbutanoic acid] was tested, and the inhibition at 1 µM was > 50%. CC(C)[C@@H](C(=O)O)N1Cc2cc(-c3ccc(NC(=O)NCc4ccccc4)cc3)ccc2C1=O [Example 233, (S)-2-(5-(4-(3-Benzylureido)phenyl)-1-oxoisoindolin-2-yl)-3-methylbutanoic acid] showed an inhibition at 1 µM of 10 to 50%. With CC(C)[C@@H](C(=O)O)N1Cc2ccc(-c3ccc(NC(=O)c4ccc(OC(F)(F)F)cc4)cc3)cc2C1=O [Example 158, (S)-3-Methyl-2-(1-oxo-6-(4-(4-(trifluoromethoxy)benzamido)phenyl)isoindolin-2-yl)butanoic acid] the inhibition at 1 µM was > 50%. For CCCCOc1ccc(C(=O)Nc2ccc(-c3ccc4c(c3)C(=O)N([C@H](C(=O)O)C(C)C)C4)c(C)c2)cc1 [Example 472, (S)-2-(6-(4-(4-Butoxybenzamido)-2-methylphenyl)-1-oxoisoindolin-2-yl)-3-methylbutanoic acid], the inhibition at 1 µM was > 50%. With CCCCOc1ccc(C(=O)Nc2ccc(-c3ccc4c(c3)C(=O)N([C@H](C(=O)O)C(C)C)C4)cc2F)cc1 [Example 452, (S)-2-(6-(4-(4-Butoxybenzamido)-3-fluorophenyl)-1-oxoisoindolin-2-yl)-3-methyl butanoic acid] the inhibition at 1 µM was > 50%. COc1cc(NC(=O)c2ccc(C(C)(C)C)cc2)ccc1-c1ccc2c(c1)C(=O)N([C@H](C(=O)O)C(C)C)C2 [Example 456, (S)-2-(6-(4-(4-tert-Butylbenzamido)-2-methoxyphenyl)-1-oxoisoindolin-2-yl)-3-methylbutanoic acid] was tested, and the inhibition at 1 µM was 10 to 50%. In the case of CC(C)[C@@H](C(=O)O)N1Cc2cc(-c3ccc(NC(=O)c4ccc(Cl)cc4)cc3)ccc2C1=O [Example 321, (S)-2-(5-(4-(4-Chlorobenzamido)phenyl)-1-oxoisoindolin-2-yl)-3-methylbutanoic acid], the inhibition at 1 µM is reported as > 50%. Cc1cc(NC(=O)c2ccc(OC(F)(F)F)cc2)ccc1-c1ccc2c(c1)C(=O)N([C@H](C(=O)O)C(C)C)C2 [Example 476, (S)-3-Methyl-2-(6-(2-methyl-4-(4-(trifluoromethoxy)benzamido)phenyl)-1-oxoisoindolin-2-yl)butanoic acid] was tested, and the inhibition at 1 µM was > 50%. CC(C)[C@@H](C(=O)O)N1Cc2cc(-c3ccc(NC(=O)Nc4ccccc4F)cc3)ccc2C1=O [Example 227, (S)-2-(5-(4-(3-(2-Fluorophenyl)ureido)phenyl)-1-oxoisoindolin-2-yl)-3-methyl butanoic acid] was tested, and the inhibition at 1 µM was > 50%. With CCCCCc1ccc(C(=O)Nc2ccc(-c3ccc4c(c3)C(=O)N([C@H](C(=O)O)C(C)C)C4)c(F)c2)cc1 [Example 610, (S)-2-(6-(2-Fluoro-4-(4-pentylbenzamido)phenyl)-1-oxoisoindolin-2-yl)-3-methyl butanoic acid] the inhibition at 1 µM was > 50%. For O=C(O)CN1Cc2cc(-c3ccc(NC(=O)Nc4cccc(C(F)(F)F)c4)cc3)ccc2C1=O [Example 364, 2-(1-Oxo-5-(4-(3-(3-(trifluoromethyl)phenyl)ureido)phenyl)isoindolin-2-yl)acetic acid], the inhibition at 1 µM was 10 to 50%. In the case of CC(C)[C@@H](C(=O)O)N1Cc2ccc(-c3ccc(NC(=O)Nc4cccc(C#N)c4)cc3)cc2C1=O [Example 42, (S)-2-(6-(4-(3-(3-Cyanophenyl)ureido)phenyl)-1-oxoisoindolin-2-yl)-3-methyl butanoic acid], the inhibition at 1 µM is reported as > 50%. For CC(C)[C@@H](C(=O)O)N1Cc2ccc(-c3ccc(NC(=O)Nc4ccc(Cl)cc4Oc4ccccc4)cc3)cc2C1=O [Example 44, (S)-2-(6-(4-(3-(4-Chloro-2-phenoxyphenyl)ureido)phenyl)-1-oxoisoindolin-2-yl)-3-methylbutanoic acid], the inhibition at 1 µM was > 50%. With CC(C)[C@@H](C(=O)O)N1Cc2cc(-c3ccc(NC(=O)Nc4ccc(F)cc4)cc3)ccc2C1=O [Example 225, (S)-2-(5-(4-(3-(4-Fluorophenyl)ureido)phenyl)-1-oxoisoindolin-2-yl)-3-methylbutanoic acid] the inhibition at 1 µM was > 50%. CC(C)[C@@H](C(=O)O)N1Cc2cc(-c3ccc(NC(=O)Nc4ccc(F)c(F)c4)cc3)ccc2C1=O [Example 239, (S)-2-(5-(4-(3-(3,4-Difluorophenyl)ureido)phenyl)-1-oxoisoindolin-2-yl)-3-methylbutanoic acid] was tested, and the inhibition at 1 µM was > 50%. Compound CC(C)[C@@H](C(=O)O)N1Cc2ccc(-c3ccc(NC(=O)c4cccc(C(F)(F)F)c4F)cc3)cc2C1=O [Example 194, (S)-2-(6-(4-(2-Fluoro-3-(trifluoromethyl)benzamido)phenyl)-1-oxoisoindolin-2-yl)-3-methylbutanoic acid] has an inhibition at 1 µM of 10 to 50%. CC(C)[C@@H](C(=O)O)N1Cc2cc(-c3ccc(NC(=O)c4cccc(Cl)c4)cc3)ccc2C1=O [Example 315, (S)-2-(5-(4-(3-Chlorobenzamido)phenyl)-1-oxoisoindolin-2-yl)-3-methylbutanoic acid] showed an inhibition at 1 µM of 10 to 50%. O=C(Nc1ccc(-c2ccc3c(c2)CN([C@@H](Cc2ccccc2)C(=O)O)C3=O)cc1)Nc1cccc(C(F)(F)F)c1 [Example 382, (S)-2-(1-Oxo-5-(4-(3-(3-(trifluoromethyl)phenyl)ureido)phenyl)isoindolin-2-yl)-3-phenylpropanoic acid] was tested, and the inhibition at 1 µM was 10 to 50%. CC(C)[C@@H](C(=O)O)N1Cc2ccc(-c3ccc(NC(=O)c4c(F)cccc4F)cc3)cc2C1=O [Example 138, (S)-2-(6-(4-(2,6-Difluorobenzamido)phenyl)-1-oxoisoindolin-2-yl)-3-methyl butanoic acid] gave an inhibition at 1 µM of 10 to 50%. Work on CC(C)[C@@H](C(=O)O)N1Cc2ccc(-c3ccc(NS(=O)(=O)C(C)C)cc3)cc2C1=O [Example 96, (S)-3-Methyl-2-(6-(4-(1-methylethylsulfonamido)phenyl)-1-oxoisoindolin-2-yl)butanoic acid] yielded an inhibition at 1 µM of 10 to 50%. With CC(C)[C@@H](C(=O)O)N1Cc2ccc(-c3ccc(NC(=O)c4cc(-c5ccc(F)cc5)no4)cc3)cc2C1=O [Example 616, (S)-2-(6-(4-(3-(4-Fluorophenyl)isoxazole-5-carboxamido)phenyl)-1-oxoisoindolin-2-yl)-3-methylbutanoic acid] the inhibition at 1 µM was > 50%. In the case of CC(C)[C@@H](C(=O)O)N1Cc2ccc(-c3ccc(NC(=O)c4nc(-c5ccccc5)cs4)cc3)cc2C1=O [Example 624, (S)-3-Methyl-2-(1-oxo-6-(4-(4-phenylthiazole-2-carboxamido)phenyl)isoindolin-2-yl)butanoic acid], the inhibition at 1 µM is reported as > 50%. In the case of O=C(Nc1ccc(-c2ccc3c(c2)C(=O)N(C2(C(=O)O)CCCC2)C3)cc1)c1ccc(OC(F)(F)F)cc1 [Example 535, 1-(1-Oxo-6-(4-(4-(trifluoromethoxy)benzamido)phenyl)isoindolin-2-yl)cyclopentane carboxylic acid], the inhibition at 1 µM is reported as > 50%. CC(C)[C@@H](C(=O)O)N1Cc2cc(-c3ccc(NC(=O)c4ccccc4)cc3)ccc2C1=O [Example 305, (S)-2-(5-(4-Benzamidophenyl)-1-oxoisoindolin-2-yl)-3-methylbutanoic acid] showed an inhibition at 1 µM of 10 to 50%. For CCOc1ccccc1C(=O)Nc1ccc(-c2ccc3c(c2)C(=O)N([C@H](C(=O)O)C(C)C)C3)cc1 [Example 202, (S)-2-(6-(4-(2-Ethoxybenzamido)phenyl)-1-oxoisoindolin-2-yl)-3-methylbutanoic acid], the inhibition at 1 µM was > 50%. In the case of CC(C)[C@@H](C(=O)O)N1Cc2cc(-c3ccc(NC(=O)c4cccc(F)c4)cc3)ccc2C1=O [Example 313, (S)-2-(5-(4-(3-Fluorobenzamido)phenyl)-1-oxoisoindolin-2-yl)-3-methylbutanoic acid], the inhibition at 1 µM is reported as 10 to 50%.
